Reference: paper PMC8915595, “Revisiting the application of Immobilized Artificial Membrane (IAM) chromatography to estimate in vivo distribution properties of drug discovery compounds based on the model of marketed drugs” (ADMET & DMPK, 2020)

What was measured:
[1] = IAM chromatography on new IAM.PC.DD2 columns (gradient HPLC, CHI (IAM)); format: physicochemical; set-up: key to CHI (IAM) “new” / P20511-014-3 CHI (IAM): CHI (IAM) from retention times calibrated to predefined CHI standards; settings: for log K (IAM): constant values of the calibration set, CHI IAM converted to octanol/water lipophilicity scale by equation 7
Method: The IAM binding was measured using IAM.PC.DD2 HPLC columns (Regis Technologies, Inc., IL, USA) with dimensions of 100 x 4.6 mm, particle size 10 μm with 300 Å pore size.
Two batches of IAM.PC.DD2 columns were studied (R20511-014-3 and P20511-014-3) that had been prepared using the new batches of silica support.
The retention times were standardized using the IAM calibration mixture, containing octanophenone, heptanophenone, hexanophenone, valerophenone, butyrophenone, propiophenone, acetophenone, acetanilide and paracetamol. The retention times of the compounds were plotted against the isocratically determined and predefined CHI (IAM) values listed in Table 1. The slope and intercept of the obtained straight line was used to calculate the CHI IAM values of new compounds.

[2] = set-up: method as in earlier work; settings: constant, isocratically determined and predefined values of the calibration set; cited from earlier work
[3] = human
[4] = reference CHI (IAM), old columns; cited from earlier work
[5] = molecular target: T1, human serum albumin (HSA) (Homo sapiens, UniProt P02768); settings: cited from earlier work
[6] = molecular target: T1, human serum albumin (HSA); experiment: Protein binding on chemically bonded HSA column (Chiralpak-HSA); settings: remeasured in this study, pH 7.4
Method: Mobile phase A was 50 mM ammonium acetate adjusted to pH 7.4 and mobile phase B was 2-propanol. The flow rate was 1.5 mL/min and the run time was 6 min. The 2-propanol gradient was applied from 0 to 35% from 0 to 3.00 min and kept at 35% until 4.00 min.

T1 sequence (P02768 25-609): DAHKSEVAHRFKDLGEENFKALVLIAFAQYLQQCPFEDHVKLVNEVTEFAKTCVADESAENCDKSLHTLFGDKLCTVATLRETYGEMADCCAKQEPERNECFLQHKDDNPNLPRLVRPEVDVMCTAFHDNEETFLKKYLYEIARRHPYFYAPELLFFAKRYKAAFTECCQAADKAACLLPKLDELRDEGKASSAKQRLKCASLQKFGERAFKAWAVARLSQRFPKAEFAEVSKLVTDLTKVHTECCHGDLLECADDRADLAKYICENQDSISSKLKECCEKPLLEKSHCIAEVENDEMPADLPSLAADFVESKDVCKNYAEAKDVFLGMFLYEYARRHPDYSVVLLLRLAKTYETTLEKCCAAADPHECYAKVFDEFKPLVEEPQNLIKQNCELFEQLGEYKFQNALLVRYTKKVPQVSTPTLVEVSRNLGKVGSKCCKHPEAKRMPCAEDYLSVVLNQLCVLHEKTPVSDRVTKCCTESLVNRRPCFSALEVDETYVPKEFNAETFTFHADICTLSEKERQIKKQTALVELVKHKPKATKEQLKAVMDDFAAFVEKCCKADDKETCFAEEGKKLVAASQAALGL

## CCCCCC(=O)c1ccccc1 [Hexanophenone]
[1]
  log K (IAM): 3.71
[2]
  CHI (IAM): 41.8

## CCCCCCC(=O)c1ccccc1 [Heptanophenone]
[1]
  log K (IAM): 4.30
[2]
  CHI (IAM): 45.7

## CCC(=O)c1ccccc1 [Propiophenone]
[1]
  log K (IAM): 2.15
[2]
  CHI (IAM): 25.9

## CC(=O)c1ccccc1 [Acetophenone]
[1]
  log K (IAM): 1.67
[2]
  CHI (IAM): 17.2

## CC(=O)Nc1ccccc1 [Acetanilide]
[1]
  log K (IAM): 1.45
[1]; new IAM.PC.DD2 column batch P20511-014-3, pH 7.4
  P20511-014-3 CHI (IAM): 11.50
[1]; new IAM.PC.DD2 column batch R20511-014-3, pH 7.4
  R20511-014-3 CHI (IAM): 11.55
[3]
  reference log Vdss: -0.13
[2]
  CHI (IAM): 11.5
[4]
  CHI (IAM) from ref [13]: 10.70
[5]
  log K HSA from ref [13]: 0.62
[6]
  log K HSA: 0.43

## CCCC(=O)c1ccccc1 [Butyrophenone]
[1]
  log K (IAM): 2.62
[2]
  CHI (IAM): 32.0

## CCCCC(=O)c1ccccc1 [Valerophenone]
[1]
  log K (IAM): 3.16
[2]
  CHI (IAM): 37.3

## CC(=O)Nc1ccc(O)cc1 [Paracetamol]
[1]
  log K (IAM): 1.20
[2]
  CHI (IAM): 2.90

## CCCCCCCC(=O)c1ccccc1 [Octanophenone]
[1]
  log K (IAM): 4.97
[2]
  CHI (IAM): 49.4
